In PMC4211885 (PLoS ONE, 2014):
“Also recorded” adds a separate entry of the source.

Legend:
OA/TAMac receptor = OA/TAMac receptor (Macrobrachium rosenbergii, UniProt D9U2B9); experiment: Modulation of the transient calcium-dependent chloride current ICl-T in OA/TAMac-injected oocytes (voltage step protocol); type: cell-based; settings: for Effect on ICl-T at lower concentration: 1 µM and 100 µM, 8 minute applications, n = 5 at each concentration; for Effect on ICl-T during prolonged application: 1 mM (high concentration), n = 4 oocytes
Text: The fluctuations in holding current that we refer to as ID have often been referred to as the calcium-dependent chloride current. These currents are in fact complex and are known to contain multiple poorly defined components that arise from a number of unidentified potassium, chloride and mixed cationic channels, [47]. For this reason, we tested the effect of tyramine and octopamine on one of the better characterized components, the transient calcium-dependent chloride current that we refer to as ICl-T after. This current, which has been referred to as Iout, [54], ICl-2 [55] or ICl1-T [53], can be clearly isolated from ID using a specific pulse protocol (Fig. 6A). Furthermore, ICl-T is known to increase in response to inositol 1,4,5-triphosphate (IP3) injection, [55]. Modulation of this current therefore provides additional insight into how IP3 related pathways might be affected by transmitter application.
Figure 6 Differential modulation of a transient chloride current by tyramine (TA) and octopamine (OA). ICl-T is an endogenous calcium-dependent transient chloride current coupled to extra-celluar calcium influx. It is thought to arise from a single type of channel. […] (A) The voltage command protocol used to measure ICl-T is shown with an example current. The first step to +40 mV from the holding potential of −20 mV evokes no ICl-T and provides the baseline. The hyperpolarizing step to −140 mV induces calcium influx that causes ICl-T to appear during the second step to +40 mV [53]. The amplitude of ICl-T was measured as the difference between the first step and the peak of the transient current evoked by the second. (B) Measurements of ICl-T were taken every minute during the ID evoked by long applications of 1 mM TA and 1 mM OA. The vertical lines are the currents evoked by the voltage command pulse used to measure ICl-T (as shown in A). Their true amplitude was clipped from the image during figure preparation. Below the trace individual ICl-T transients are shown. Δ ICl-T is the difference in amplitude of these transients measured at different time points. The amplitude of ICl-T increases during continuous TA application and decreases during continuous OA application. There was a 38 minute washout period between the TA and OA applications. […]
ICl-T was measured under two-electrode voltage-clamp by hyperpolarizing the oocyte to −140 mV after a step to +40 mV and stepping back to +40 mV (Fig. 6A). […] ICl-T is measured instead of Icat because ICl-T is a pure chloride conductance that likely arises from one ion channel population while Icat is complex arising from more than one conductance.
We monitored ICl-T over the course of extended transmitter applications using the described pulse protocol. […]

[1] = test system: CFTR conductance (intracellular cAMP); experiment: cAMP detection by whole oocyte (CFTR) conductance in oocytes co-expressing CFTR and OA/TAMac; type: cell-based, Xenopus laevis; settings: for Increase in cAMP levels (CFTR conductance): OA and TA at 100 µM or 1000 µM
Text: It is also unlikely that the effects of tyramine at high concentration result from an increase in cAMP. It is common that octopaminergic GPCRs can couple through the canonical Gαs/cAMP pathway so we used co-expression of the Cystic Fibrosis Trans-membrane Conductance Regulator (CFTR) as a means of testing for increases in cAMP (see methods for more detail) [60]–[63].
As a means of detecting rises in intracellular cAMP levels we tested oocytes co-expressing the CFTR channel and OA/TAMac. Heterologously expressed CFTR can be used as an extremely sensitive assay for intracellular cAMP in Xenopus oocytes. CFTR mediates a chloride-selective leak conductance that is activated by increases in intracellular cAMP [63]. Activity of CFTR can thus be used to indicate whether changes in cAMP correspond with ligand application [60]–[62]. Whole oocyte conductance was monitored using a step protocol and calculated from I/V plots. The command voltage was stepped from the holding potential to various levels (−10 mV to −55 mV in −5 mV increments) for 150 ms. The steady state current during each step was plotted against the command voltage and fit to a line using Clampfit 10 software (Fig. S7A). The slope of the line was taken as the conductance. To minimize the magnitude of the holding current between drug applications, oocytes expressing CFTR were typically held at −20 mV which is close to the typical chloride reversal potential. This was confirmed by the fact that the direct-current evoked by forskolin could appear inward or outward at −20 mV. Oocytes expressing either OA/TAMac alone or OA/TAMac and CFTR typically had resting membrane potentials between −20 mV and −30 mV (mean of −26±5 mV calculated from oocytes in Fig. S7) due to increased expression of endogenous chloride currents.
(A) The measurement of whole oocyte conductance was done by plotting steady state current against the command voltage recorded during a step protocol. It is defined as the slope (I/V) of the linear least squares regression line. In the example shown tyramine (TA) causes no apparent change in whole oocyte conductance. Octopamine (OA) causes a small change compared to the adenylate cyclase activator forskolin (FSK). […] These cumulative data are from 20 OA/TAMac and CFTR-injected oocytes and 6 OA/TAMac -only injected oocytes. Conductance was measured as shown in A. Not all compounds were tested in all oocytes. Each response is treated as an independent sample. Concentrations of OA and TA were at 100 µM or 1000 µM, FSK was at 50 µM. Some points obtained at 3 minutes were grouped with the 4 minute responses. (C) The change in conductance (Δg) occurring within oocytes as determined by the difference between baseline and the indicated time points post-application of compound. […]

Sequence of OA/TAMac receptor (D9U2B9 entry or part of it): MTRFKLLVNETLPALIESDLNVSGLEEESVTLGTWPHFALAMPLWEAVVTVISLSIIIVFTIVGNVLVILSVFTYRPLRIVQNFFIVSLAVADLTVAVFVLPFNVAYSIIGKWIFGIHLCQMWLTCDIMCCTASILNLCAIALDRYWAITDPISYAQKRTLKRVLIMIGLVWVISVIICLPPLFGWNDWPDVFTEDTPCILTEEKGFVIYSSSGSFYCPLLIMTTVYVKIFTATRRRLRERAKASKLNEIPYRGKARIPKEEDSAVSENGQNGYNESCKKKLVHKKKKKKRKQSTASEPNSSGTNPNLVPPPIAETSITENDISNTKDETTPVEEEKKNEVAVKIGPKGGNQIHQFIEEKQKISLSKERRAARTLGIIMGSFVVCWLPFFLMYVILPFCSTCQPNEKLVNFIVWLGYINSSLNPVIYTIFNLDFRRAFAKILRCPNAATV

Row | Effect on ICl-T at lower concentration (OA/TAMac receptor) | Compound | Effect on ICl-T during prolonged application (OA/TAMac receptor) | Increase in cAMP levels (CFTR conductance) [1] | Mean change in conductance (Δg) within oocytes ([1]; compiled from 12 oocytes, s.d. = 1.72 µS, high conductance outlier excluded) [µS]
1 | no apparent effect | NCC(O)c1ccc(O)cc1 (racemic) [octopamine, (+/−)-octopamine] | reversibly decreases; also recorded: decreased | neither octopamine nor tyramine produced significant increases | –
2 | increase | NCCc1ccc(O)cc1 [tyramine] | reversibly increases; also recorded: increased | neither octopamine nor tyramine produced significant increases | 0.30
